The text below walks through data of ChEMBL document CHEMBL3352497, “Design and optimization of novel 4-(2-fluorophenoxy)quinoline derivatives bearing a hydrazone moiety as c-Met kinase inhibitors” (Eur J Med Chem, 2014).

Test [1] relates to A549. As to the kind of experiment: cells. The note with it: Homo sapiens, A549, 72 h.
Description: Antiproliferative activity against human A549 cells assessed as inhibition of cell growth after 72 hrs by MTT assay
Test [2] in a line: cells. The note with it: Homo sapiens, NCI-H460, 72 h.
The nature of test [3]: Antiproliferative activity against human MKN45 cells assessed as inhibition of cell growth after 72 hrs by MTT assay. In kind it is functional, cell-based. The note with it: MKN-45, 72 h.
The subject of test [4] is HT-29. As to the kind of experiment: cells. The note with it: Homo sapiens, HT-29, 72 h.
Description: Antiproliferative activity against human HT-29 cells assessed as inhibition of cell growth after 72 hrs by MTT assay
Test [5] can be described thus: Antiproliferative activity against human U87MG cells assessed as inhibition of cell growth after 72 hrs by MTT assay. Format: functional, cell-based, U-87MG ATCC. The note with it: U-87 MG. (Tetrazolium dyes change colour on reduction, which living cells bring about.)

Consider `COc1cc2c(Oc3ccc(CC(=O)N/N=C/c4ccccc4)cc3F)ccnc2cc1OCCCN1CCOCC1`, for which the IC50 in test [1] is 230 nM; in test [2] it was 110 nM; in test [3], 820 nM; in test [4], 410 nM; in test [5], 480 nM.

Regarding `COc1cc2c(Oc3ccc(CC(=O)N/N=C/c4ccc(F)cc4)cc3F)ccnc2cc1OCCCN1CCCC1`, the IC50 came to 140 nM in test [1]; 67 nM in test [2]; 560 nM in test [3]; 260 nM in test [4]; 420 nM in test [5].

As to `COc1cc2c(Oc3ccc(CC(=O)N/N=C/c4ccccc4)cc3F)ccnc2cc1OCCCN1CCCCC1`, the IC50 in test [1] was found to be 400 nM; in test [2], 220 nM; in test [3], 1580 nM; in test [4], 800 nM; in test [5] it was 1020 nM.

For the molecule `COc1cc2c(Oc3ccc(CC(=O)N/N=C(/C)c4ccc(C(F)(F)F)cc4)cc3F)ccnc2cc1OCCCN1CCOCC1`, the IC50 in test [1] is 170 nM; in test [2], 71 nM; in test [3], 590 nM; in test [4] it was 260 nM; in test [5], 390 nM.

`COc1cc2c(Oc3ccc(CC(=O)N/N=C/c4ccc(S(C)(=O)=O)cc4)cc3F)ccnc2cc1OCCCN1CCOCC1`: the IC50 turned out to be 250 nM in test [1]; 100 nM in test [2]; 1140 nM in test [3]; 480 nM in test [4]; 680 nM in test [5].

Turning to `COc1cc2c(Oc3ccc(CC(=O)N/N=C(/C)c4ccccc4)cc3F)ccnc2cc1OCCCN1CCCCC1`, the IC50 in test [1] was 520 nM; in test [2], 340 nM; in test [3], 1990 nM; in test [4] it was 970 nM; in test [5], 1380 nM.

As for `COc1cc2c(Oc3ccc(CC(=O)N/N=C/c4ccc(O)cc4)cc3F)ccnc2cc1OCCCN1CCOCC1`, the IC50 in test [1] is 560 nM; in test [2], 310 nM; in test [3], 3220 nM; in test [4], 1300 nM; in test [5], 1700 nM.

For the molecule `COc1cc2c(Oc3ccc(CC(=O)N/N=C/c4ccco4)cc3F)ccnc2cc1OCCCN1CCOCC1`, the 50% inhibitory concentration (IC50) in test [1] stood at 3190 nM; in test [2], 880 nM; in test [4] it was 2780 nM.

In the case of `COc1cc2c(Oc3ccc(CC(=O)N/N=C(/C)c4ccc(C(F)(F)F)cc4)cc3F)ccnc2cc1OCCCN1CCCC1`, the IC50 in test [1] worked out at 96 nM; in test [2], 46 nM; in test [3] it was 420 nM; in test [4] it was 190 nM; in test [5], 370 nM.

`COc1cc2c(Oc3ccc(CC(=O)N/N=C(/C)c4ccccc4)cc3F)ccnc2cc1OCCCN1CCC(C)CC1`: the concentration for half-maximal inhibition (IC50) in test [1] is 390 nM; in test [2], 200 nM; in test [3], 2690 nM; in test [4], 950 nM; in test [5] it was 1480 nM.

Consider `COc1cc2c(Oc3ccc(CC(=O)N/N=C/C(C)C)cc3F)ccnc2cc1OCCCN1CCOCC1`, for which the half-maximal inhibitory concentration (IC50) in test [1] came to 23000 nM; in test [2], 7140 nM; in test [4], 25200 nM.

As for `COc1cc2c(Oc3ccc(CC(=O)N/N=C/c4ccccc4)cc3F)ccnc2cc1OCCCN1CCC(C)CC1`, the concentration for half-maximal inhibition (IC50) worked out at 340 nM in test [1]; 170 nM in test [2]; 2120 nM in test [3]; 810 nM in test [4]; 970 nM in test [5].

For the molecule `COc1cc2c(Oc3ccc(CC(=O)N/N=C/c4ccc(Cl)cc4)cc3F)ccnc2cc1OCCCN1CCCC1`, the IC50 stood at 170 nM in test [1]; 75 nM in test [2]; 620 nM in test [3]; 280 nM in test [4]; 400 nM in test [5].

For `COc1cc2c(Oc3ccc(CC(=O)N/N=C/c4ccncc4)cc3F)ccnc2cc1OCCCN1CCOCC1`, the IC50 in test [1] is 160 nM; in test [2] it was 94 nM; in test [3], 790 nM; in test [4], 320 nM; in test [5], 500 nM.

Regarding `COc1cc2c(Oc3ccc(CC(=O)N/N=C/c4ccccc4F)cc3F)ccnc2cc1OCCCN1CCCC1`, the half-inhibitory concentration (IC50) in test [1] was 320 nM; in test [2], 82 nM; in test [3], 980 nM; in test [4], 480 nM; in test [5], 810 nM.

As to `COc1cc2c(Oc3ccc(CC(=O)N/N=C(/C)c4ccc(C(F)(F)F)cc4)cc3F)ccnc2cc1OCCCN1CCC(C)CC1`, the IC50 is 220 nM in test [1]; 96 nM in test [2]; 840 nM in test [3]; 360 nM in test [4]; 510 nM in test [5].

With `COc1cc2c(Oc3ccc(CC(=O)N/N=C/c4ccc(OC(F)(F)F)cc4)cc3F)ccnc2cc1OCCCN1CCCC1`, the half-maximal inhibitory concentration (IC50) came to 130 nM in test [1]; 58 nM in test [2]; 460 nM in test [3]; 200 nM in test [4]; 330 nM in test [5].

For `COc1cc2c(Oc3ccc(CC(=O)N/N=C/c4ccc(O)c(Br)c4)cc3F)ccnc2cc1OCCCN1CCOCC1`, the half-inhibitory concentration (IC50) amounted to 2540 nM in test [1], 1080 nM in test [2] and 3670 nM in test [4].

`COc1cc2c(Oc3ccc(CC(=O)N/N=C(/C)c4ccc(C(F)(F)F)cc4)cc3F)ccnc2cc1OCCCN1CCCCC1`: the IC50 in test [1] was 290 nM; in test [2], 130 nM; in test [3] it was 940 nM; in test [4], 450 nM; in test [5], 590 nM.

As to `COc1cc2c(Oc3ccc(CC(=O)N/N=C/c4ccccc4)cc3F)ccnc2cc1OCCCN1CCCC1`, the half-inhibitory concentration (IC50) amounted to 140 nM in test [1]; 83 nM in test [2]; 720 nM in test [3]; 340 nM in test [4]; 420 nM in test [5].

In the case of `COc1ccc(/C=N/NC(=O)Cc2ccc(Oc3ccnc4cc(OCCCN5CCOCC5)c(OC)cc34)c(F)c2)cc1`, the IC50 in test [1] turned out to be 960 nM; in test [2], 450 nM; in test [3], 3910 nM; in test [4] it was 1720 nM; in test [5] it was 2650 nM.

Take `COc1cc2c(Oc3ccc(CC(=O)N/N=C/c4ccc(OC(F)(F)F)cc4)cc3F)ccnc2cc1OCCCN1CCOCC1`: the IC50 was 200 nM in test [1]; 81 nM in test [2]; 690 nM in test [3]; 380 nM in test [4]; 450 nM in test [5].

As for `COc1cc2c(Oc3ccc(CC(=O)N/N=C/c4ccc[nH]4)cc3F)ccnc2cc1OCCCN1CCOCC1`, the IC50 in test [1] was found to be 1220 nM; in test [2], 760 nM; in test [4], 2360 nM.

Consider `COc1cc2c(Oc3ccc(CC(=O)N/N=C(/C)c4ccccc4)cc3F)ccnc2cc1OCCCN1CCCC1`, for which the IC50 was found to be 280 nM in test [1]; 99 nM in test [2]; 760 nM in test [3]; 440 nM in test [4]; 590 nM in test [5].

Turning to `COc1cc2c(Oc3ccc(CC(=O)N/N=C(/C)c4ccc(O)cc4)cc3F)ccnc2cc1OCCCN1CCCC1`, the half-inhibitory concentration (IC50) in test [1] is 410 nM; in test [2], 180 nM; in test [3] it was 1680 nM; in test [4] it was 780 nM; in test [5], 1160 nM.

With `COc1cc2c(Oc3ccc(CC(=O)N/N=C(/C)c4ccc(Cl)cc4)cc3F)ccnc2cc1OCCCN1CCCC1`, the IC50 in test [1] came to 190 nM; in test [2] it was 83 nM; in test [4], 290 nM.

What is called IC50 is the concentration at which inhibition is half-maximal.
